Data reported in patent US20220257595A1, “MACITENTAN FOR USE IN TREATING PORTOPULMONARY HYPERTENSION” (ACTELION PHARMACEUTICALS LTD, priority 2019, published 2022).

What was measured:
[1] = tested on: patients with PoPH; experiment: PORTICO: hepatic venous pressure gradient by hepatic vein catheterization; assay type: in vivo, human; conditions: macitentan group n=15, no TIPS
Method: (ii) Hemodynamic measurements—hepatic vein catheterization: HVPG, the difference between portal pressure and hepatic pressure, was measured by HVC at Baseline (Visit 1/Screening) and Week 12, or at permanent discontinuation of DB study treatment if prior to Week 12 (at the investigator's discretion). Where possible, HVPG was measured at the same time as RHC. The second measurement during the study was required to be performed within 1 week prior to EOT-DB if it was not possible to perform the HVC on the same day as the RHC. HVPG measurements were performed after at least 4 hours of fasting, at rest, in the supine position, under local anesthesia and mild sedation. A catheter introducer was placed into the right jugular vein (or femoral) using the Seldinger technique. It was used to advance a balloon-tipped catheter into the main right hepatic vein for repeated measurements of wedged (occluded) and free hepatic venous pressures. Intravascular pressures were measured using highly sensitive pressure transducers, calibrated before each measurement. HVPG was calculated as the difference between wedged and free hepatic venous pressures. […] The mean of these two measurements was considered final. […]

[2] = tested on: patients with PoPH; experiment: PORTICO safety: vital signs, body weight, BMI; conditions: in vivo
Excerpt: For the evaluation of treatment-emergent safety endpoints in the DB phase, the observation period for each individual subject started at the time of the first administration of macitentan or placebo and ended with the start of OL treatment or 30 days after DB treatment discontinuation (whichever occurred first). The safety variables listed below apply to the DB treatment-emergent period and the macitentan treatment-emergent period. The DB treatment-emergent period was defined as the period from the DB treatment start date up to the EOT-DB+30 days or to the EOT-DB for patients entering OL. The macitentan treatment-emergent period was defined as the period from the first intake of macitentan up to end of macitentan treatment (EOMT)+30 days. EOMT was defined as EOT-DB (for patient who received macitentan only in the DB period) or EOT-OL when applicable. […]

CCCNS(=O)(=O)Nc1ncnc(OCCOc2ncc(Br)cn2)c1-c1ccc(Br)cc1 [macitentan, N-[5-(4-Bromophenyl)-6-[2-[(5-bromo-2-pyrimidinyl)oxy]ethoxy]-4-pyrimidinyl]-N′-propylsulfamide]
HVPG (central review) mean change from baseline at Week 12 [1]: −0.5 mmHg
Effect on vital signs, body weight or BMI [2]: no indication of any notable effect
